US10005767B2, “Compositions and methods for inhibition of the JAK pathway” (Rigel Pharmaceuticals, Inc., priority 2009, dated 2018)
pIC50: −log10 of the molar value. Structures can show the parent of a compound that is named as a salt. Where two headings read alike, the source gives them in different places.

Tested on: human primary T-cells, IL-2 stimulated proliferation (JAK-1 and JAK-3 dependent; reported as JAK3 activity)
Assay: Human primary T-cell proliferation stimulated by IL-2 (Example 3)
Assay type: cell-based
Details: tested under conditions described in Example 3 (IL-2 stimulated human primary T-cell proliferation), read-out: ability to inhibit JAK3 activity, IC50 range (Table V)
In short: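 Peripheral-blood human T-cells pre-activated via TCR/CD28, IL-2-starved overnight, then cultured 72 h at 37 °C with compound in Yssel's medium containing IL-2 (80 U/mL in cell suspension). Proliferation read as viable-cell ATP by CellTiter-Glo luminescence; reduction versus control taken as JAK pathway inhibition.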

Molecule `Cc1ccc(C)c(Nc2ncc(C)c(Nc3ccc4oc(=O)[nH]c4c3)n2)c1` [Compound I-501, 5-(2-(2,5-dimethylphenylamino)-5-methylpyrimidin-4-ylamino)benzo[d]oxazol-2(3H)-one] has a pIC50 (Homo sapiens, T-cell) of 5.30 to 6.30.
With `Cc1cnc(Nc2cccc(C(=O)N3CCN(C)CC3)c2)nc1Nc1ccc2oc(=O)[nH]c2c1` [Compound I-321, 5-methyl-N2-[3-(4-methylpiperazin-1-yl)carbonyl]phenyl-N4-(2-oxo-2,3-dihydro-1,3-benzoxazol-5-yl)-2,4-pyrimidinediamine] the pIC50 was over 6.30.
`Cc1cnc(Nc2cc(F)c(N3CCN(C)CC3)c(F)c2)nc1Nc1ccc2oc(=O)[nH]c2c1` [Compound I-282, N2-[3,5-difluoro-4-(4-methylpiperazino)]phenyl-5-methyl-N4-(2-oxo-2,3-dihydro-1,3-benzoxazol-5-yl)-2,4-pyrimidinediamine] gave a pIC50 of over 6.30.
Molecule `COc1cc(Nc2ncc(C)c(Nc3ccc4oc(=O)[nH]c4c3)n2)cc(C(C)O)c1` (centres unmarked) [Compound I-423, 5-(2-(3-(1-hydroxyethyl)-5-methoxyphenylamino)-5-methylpyrimidin-4-ylamino)benzo[d]oxazol-2(3H)-one] has a pIC50 (Homo sapiens, T-cell) of over 6.30.
With `Cc1cnc(Nc2cc(Cl)cc(Cl)c2)nc1Nc1ccc2oc(=O)[nH]c2c1` [Compound I-184, 5-[2-(3,5-Dichloro-phenylamino)-5-methyl-pyrimidin-4-ylamino]-3H-benzooxazol-2-one] the pIC50 (Homo sapiens, T-cell) was over 6.30.
Molecule `Cc1cnc(Nc2ccc3c(cnn3C)c2)nc1Nc1ccc2oc(=O)[nH]c2c1` [IV-42, 5-methyl-N2-(1-methylindazol-5-yl)-N4-(2-oxo-2,3-dihydro-1,3-benzoxazol-5-yl)-2,4-pyrimidinediamine] has a pIC50 (Homo sapiens, T-cell) of over 6.30.
`Cc1cnc(Nc2ccc(N3CC4CN(C)CC4C3)nc2)nc1Nc1ccc2oc(=O)[nH]c2c1` (centres unmarked) [II-120, 5-methyl-N2-[2-(3-methyl-3,7-diazabicyclo[3.3.0]octan-7-yl)pyridin-5-yl]-N4-(2-oxo-2,3-dihydro-1,3-benzoxazol-5-yl)-2,4-pyrimidinediamine] was tested, and the pIC50 (Homo sapiens, T-cell) was over 6.30.
With `Cc1cc(Nc2ncc(C)c(Nc3ccc4oc(=O)[nH]c4c3)n2)c(C)cc1Cl` [Compound I-176, 5-[2-(4-Chloro-2,5-dimethyl-phenylamino)-5-methyl-pyrimidin-4-ylamino]-3H-benzooxazol-2-one] the pIC50 (Homo sapiens, T-cell) was 5.30 to 6.30.
`COc1cc(Nc2ncc(C)c(Nc3ccc4oc(=O)[nH]c4c3)n2)ccc1Cl` [Compound I-181, 5-[2-(4-Chloro-3-methoxy-phenylamino)-5-methyl-pyrimidin-4-ylamino]-3H-benzooxazol-2-one] gave a pIC50 (Homo sapiens, T-cell) of over 6.30.
With `Cc1cnc(Nc2cccc3c2OC(F)(F)O3)nc1Nc1ccc2oc(=O)[nH]c2c1` [IV-11, 5-[2-(2,2-Difluoro-benzo[1,3]dioxol-4-ylamino)-5-methyl-pyrimidin-4-ylamino]-3H-benzooxazol-2-one] the pIC50 (Homo sapiens, T-cell) was over 6.30.
`Cc1cnc(Nc2ccc(C(C)N3CCCC3)cc2)nc1Nc1ccc2oc(=O)[nH]c2c1` (centres unmarked) [Compound I-203, 5-(5-methyl-2-(4-(1-(pyrrolidin-1-yl)ethyl)phenylamino)pyrimidin-4-ylamino)benzo[d]oxazol-2(3H)-one] showed a pIC50 (Homo sapiens, T-cell) of over 6.30.
In the case of `Cc1cnc(Nc2ccc(OCCCN(C)C)c(C(F)(F)F)c2)nc1Nc1ccc2oc(=O)[nH]c2c1` [Compound I-404, 5-{2-[4-(3-Dimethylamino-propoxy)-3-trifluoromethyl-phenylamino]-5-methyl-pyrimidin-4-ylamino}-3H-benzooxazol-2-one], the pIC50 (Homo sapiens, T-cell) was over 6.30.
Work on `CCc1ccccc1Nc1ncc(C)c(Nc2ccc3oc(=O)[nH]c3c2)n1` [Compound I-502, 5-(2-(2-ethylphenylamino)-5-methylpyrimidin-4-ylamino)benzo[d]oxazol-2(3H)-one] yielded a pIC50 (Homo sapiens, T-cell) of 5.30 to 6.30.
Molecule `Cc1cnc(Nc2cnc(N3CCN(C)CC3)c(F)c2)nc1Nc1ccc2oc(=O)[nH]c2c1` [II-111, N4-(benzo[d]oxazolin-2(3H)-one-5-yl)-N2-[3-fluoro-2-(4-methylpiperazin-1-yl)pyridine-5-yl]-5-methyl-2,4-pyrimidinediamine] has a pIC50 (Homo sapiens, T-cell) of over 6.30.
`Cc1cnc(Nc2ccc(N3CCN[C@@H](C)C3)nc2)nc1Nc1ccc2oc(=O)[nH]c2c1` [II-44, 5-{5-Methyl-2-[6-((S)-3-methyl-piperazin-1-yl)-pyridin-3-ylamino]-pyrimidin-4-ylamino}-3H-benzooxazol-2-one] was tested, and the pIC50 (Homo sapiens, T-cell) was over 6.30.
For `Cc1cnc(Nc2cnc(N3CC4CC3CN4)c(F)c2)nc1Nc1ccc2oc(=O)[nH]c2c1` (centres unmarked) [II-51, 5-{2-[6-(2,5-Diaza-bicyclo[2.2.1]hept-2-yl)-5-fluoro-pyridin-3-ylamino]-5-methyl-pyrimidin-4-ylamino}-3H-benzooxazol-2-one], the pIC50 (Homo sapiens, T-cell) was over 6.30.
For `COc1cc(Nc2ncc(C)c(Nc3ccc4oc(=O)[nH]c4c3)n2)ccc1C(=O)NC1CC1` [Compound I-220, N-cyclopropyl-2-methoxy-4-(5-methyl-4-(2-oxo-2,3-dihydrobenzo[d]oxazol-5-ylamino)pyrimidin-2-ylamino)benzamide], the pIC50 (Homo sapiens, T-cell) was over 6.30.
`Cc1cnc(Nc2ccc(C#N)c(C(F)(F)F)c2)nc1Nc1ccc2oc(=O)[nH]c2c1` [Compound I-303, N2-(4-cyano-3-trifluoromethyl)phenyl-5-methyl-N4-(2-oxo-2,3-dihydro-1,3-benzoxazol-5-yl)-2,4-pyrimidinediamine] showed a pIC50 of over 6.30.
Work on `COc1ccc(Nc2ncc(C)c(Nc3ccc4oc(=O)[nH]c4c3)n2)cc1C(F)(F)F` [Compound I-297, N2-(4-methoxy-3-trifluoromethyl)phenyl-5-methyl-N4-(2-oxo-2,3-dihydro-1,3-benzoxazol-5-yl)-2,4-pyrimidinediamine] yielded a pIC50 of over 6.30.
For `Cc1cc(Nc2ncc(C)c(Nc3ccc4oc(=O)[nH]c4c3)n2)ccc1OC(F)F` [Compound I-387, N2-(4-difluoromethoxy-3-methyl)phenyl-5-methyl-N4-(2-oxo-2,3-dihydro-1,3-benzoxazol-5-yl)-2,4-pyrimidinediamine], the pIC50 was over 6.30.
`Cc1cnc(Nc2ccc(OCC3CCCCC3)c(C(F)(F)F)c2)nc1Nc1ccc2oc(=O)[nH]c2c1` [Compound I-179, 5-[2-(4-Cyclohexylmethoxy-3-trifluoromethyl-phenylamino)-5-methyl-pyrimidin-4-ylamino]-3H-benzooxazol-2-one] showed a pIC50 (Homo sapiens, T-cell) of under 5.00.
`Cc1cnc(Nc2ccc(NS(C)(=O)=O)cc2)nc1Nc1ccc2oc(=O)n(C)c2c1` [Compound I-72, N2-((4-methylsulfonylamino)phenyl)-N4-(3-methyl-2-oxo-2,3-dihydrobenzo[d]oxazol-5-yl)-5-methylpyrimidine-2,4-diamine] was tested, and the pIC50 was over 6.30.
Work on `Cc1cnc(Nc2cnc(N3C[C@@H]4C[C@H]3CN4C)c(F)c2)nc1Nc1ccc2oc(=O)[nH]c2c1` [II-40, N4-(benzoxazolin-2-on-5-yl)-N2-[3-fluoro-2-((1S,4S)-5-methyl-2,5-diazabicyclo[2.2.1]heptan-2-yl)pyridin-5-yl]-5-methylpyrimidine-2,4-diamine] yielded a pIC50 (Homo sapiens, T-cell) of over 6.30.
In the case of `Cc1cnc(Nc2ccc3c(c2)C=CCNC3=O)nc1Nc1ccc2oc(=O)[nH]c2c1` [IV-18, (Z)-5-(5-methyl-2-(1-oxo-2,3-dihydro-1H-benzo[c]azepin-7-ylamino)pyrimidin-4-ylamino)benzo[d]oxazol-2(3H)-one], the pIC50 (Homo sapiens, T-cell) was over 6.30.
`CC(=O)NC1CCN(c2ccc(Nc3ncc(C)c(Nc4ccc5oc(=O)[nH]c5c4)n3)cn2)C1` (centres unmarked) [II-81, N-(1-(5-(5-methyl-4-(2-oxo-2,3-dihydrobenzo[d]oxazol-5-ylamino)pyrimidin-2-ylamino)pyridin-2-yl)pyrrolidin-3-yl)acetamide] showed a pIC50 (Homo sapiens, T-cell) of over 6.30.
For `Cc1cnc(Nc2ccc3c(c2)OC(F)(F)O3)nc1Nc1ccc2oc(=O)[nH]c2c1` [IV-36, N2-(2,2-difluoro-2H-1,3-benzodioxol-5-yl)-5-methyl-N4-(2-oxo-2,3-dihydro-1,3-benzoxazol-5-yl)-2,4-pyrimidinediamine], the pIC50 (Homo sapiens, T-cell) was over 6.30.
For `CCN(CC)C1CCN(C2CCCCc3ccc(Nc4ncc(C)c(Nc5ccc6oc(=O)[nH]c6c5)n4)cc32)C1` (centres unmarked) [IV-13, 5-{2-[9-(3-Diethylamino-pyrrolidin-1-yl)-6,7,8,9-tetrahydro-5H-benzocyclohepten-2-ylamino]-5-methyl-pyrimidin-4-ylamino}-3H-benzooxazol-2-one], the pIC50 (Homo sapiens, T-cell) was 5.30 to 6.30.
Molecule `Cc1cnc(Nc2ccc(C(N)=O)cc2)nc1Nc1ccc2oc(=O)n(COP(=O)(O)O)c2c1` [Compound I-147, (5-(2-(4-carbamoylphenylamino)-5-methylpyrimidin-4-ylamino)-2-oxobenzo[d]oxazol-3(2H)-yl)methyl dihydrogen phosphate] has a pIC50 (Homo sapiens, T-cell) of over 6.30.
With `COc1cc(Nc2ncc(C)c(Nc3ccc4oc(=O)[nH]c4c3)n2)cc(C(C)N2CCC2)c1` (centres unmarked) [Compound I-235, 5-(2-(3-(1-(azetidin-1-yl)ethyl)-5-methoxyphenylamino)-5-methylpyrimidin-4-ylamino)benzo[d]oxazol-2(3H)-one] the pIC50 (Homo sapiens, T-cell) was over 6.30.
Molecule `Cc1cnc(Nc2ccc(N3CCN(C)[C@H](C)C3)nc2)nc1Nc1ccc2oc(=O)[nH]c2c1` [II-55, (R)-5-(2-(6-(3,4-dimethylpiperazin-1-yl)pyridin-3-ylamino)-5-methylpyrimidin-4-ylamino)benzo[d]oxazol-2(3H)-one] has a pIC50 (Homo sapiens, T-cell) of over 6.30.
`Cc1cnc(Nc2cc(C(C)NC3CC3)cc(C(F)(F)F)c2)nc1Nc1ccc2oc(=O)[nH]c2c1` (centres unmarked) [Compound I-461, 5-(2-(3-(1-(cyclopropylamino)ethyl)-5-(trifluoromethyl)phenylamino)-5-methylpyrimidin-4-ylamino)benzo[d]oxazol-2(3H)-one] was tested, and the pIC50 (Homo sapiens, T-cell) was over 6.30.
`Cc1cnc(Nc2ccc(C(N)=O)c(Cl)c2)nc1Nc1ccc2oc(=O)[nH]c2c1` [Compound I-141, 2-Chloro-4-[5-methyl-4-(2-oxo-2,3-dihydro-benzooxazol-5-ylamino)-pyrimidin-2-ylamino]-benzamide trifluoroacetic acid salt] gave a pIC50 (Homo sapiens, T-cell) of over 6.30.
